Reference: US20140272000A1, “Liquids and Foodstuffs Containing beta-hydroxy-beta-methylbutyrate (HMB) in the Free Acid Form and Methods of Manufacturing or Producing the Same” (Metabolic Technologies, Inc., priority 2013, published 2014)

Columns and labels:
Assay type in all cases: physicochemical
[1] = Stability of product composition (physical appearance) with the addition of HMB, free acid and calcium salt forms; conditions: Ensure Clear, two flavors, 1 g CaHMB or 0.8 g HMB free acid in 40 ml
Experimental: • 1. N=2 (Two flavors of a commercially available ready-to-drink soluble-protein product; Ensure Clear, pH approximately 2.74) • 2. Label the glass bottles A1-A3 and B1-B3. The labels correspond to the following conditions:
• 3. To bottles A2 and B2 1 g of CaHMB MTI 1208-100-02 TSI 12070630 added. • 4. To bottles A3 and B3 0.8 g of HMB Free Acid MTI 1103-100-09 Lot 11010084 added. • 5. 40 ml of Peach flavored product added to the bottles labeled A1-A3. • 6. 40 ml of Blueberry Pomegranate flavored product added to the bottles labeled B1-B3. • 7. Bottles were sealed with rubber caps and crimped shut. Then, they were mixed well and placed on shelf. • 8. Appearances were noted and photos were taken daily (bottles were not disturbed).
Table 2 reports the physical appearance of the ready-to-drink soluble-protein product (n=2) following the addition of CaHMB or HMB free acid and mixing. HMB was not added to the control bottles. Day 1 was recorded after initial mixing.

[2] = General observation on addition of HMB forms to liquids
[3] = Long term stability (appearance) in soluble-protein drinks; conditions: 42 days; ISOPURE protein drink, GNC protein juice, Gatorade Recover, Spartos protein water; 250 mg CaHMB or 200 mg HMB FA in 40 ml
Experimental: • 1. Rinse 12 glass bottles with ethanol and let air dry overnight. • 2. Label the glass bottles A1-A3, B1-B3, C1-C3 and D1-D3. The labels correspond to the following conditions:
• 3. To bottles A2-D2 CaHMB MTI 1208-100-02 TSI 12070630 was used. • 4. To bottles A3-D3 HMB Free Acid MTI 1103-100-09 Lot 11010084 was used. • 5. Add 40 ml of ISOPURE protein drink to A1-A3, 40 ml of GNC protein juice to B1-B3, 40 ml Gatorade Recover to C1-C3, and 40 ml Spartos protein water to D1-D3. • 6. Flush with nitrogen and seal the bottles with rubber caps and metal clamp caps. • 7. Mix well. • 8. Take photo of bottles A1-A3, B1-B3, C1-C3, and D1-D3 every Friday. The photos appear in FIG. 2a-2d. The following tables 6-9 provide the nutritional information for each of the liquids tested (ISOPURE, GNC Protein Juice, Gatorade G3-Recover, and Spartos protein water.)

[4] = Stability of HMB-acid at various concentrations in soluble protein (ISOPURE protein drink) over 120 days, HPLC
Experimental: This experiment was designed to observe the stability of HMB-acid at various concentrations in soluble protein over 120 days.
To analyze the stability of HMB free acid in the soluble protein (ISOPURE protein drink, Natures Best®, Hauppauge, N.Y.), different concentrations of HMB free acid were added to the recommended serving size of ISOPURE protein drink. The three concentrations were 300 mg/240 ml, 1000 mg/240 ml, and 3000 mg/240 ml. HMB free acid was measured for each solution using HPLC at 5 different time points: 0, 30, 60, 90, and 120 d. HMB free acid used was MTI 1301-100-03 (Lot 120111036). ISOPURE protein drink used was Lot 1212111132310. ISOPURE protein drink has a pH of approximately 2.54. All glassware and supplies used were autoclaved in preparation of the three different concentrations of HMB free acid in ISOPURE protein drink for the 5 different time points. Materials to be autoclaved were as follows: glass bottles, rubber and metal seals, pipette tips, and graduated cylinder. Autoclave Method #1 for dry goods in Building 3 of ISU Research Park was used.
• For bottles in group A, 60 mg of HMBFA into each of the five bottles was added, and then 48 ml of ISOPURE protein drink was added. The HMBFA concentration was 1.25 mg/ml. • For bottles in group B 200 mg of HMBFA into each of the five bottles was added, and then 48 ml of ISOPURE protein drink was added. The HMBFA concentration was 4.16 mg/ml. • For bottles in group C, 600 mg of HMBFA into each of the five bottles was, and then 48 ml of ISOPURE protein drink was added.
Each sample bottle was flushed with nitrogen and then the top of the bottle was sealed with rubber caps, crimped shut and mix well. • One bottle of each concentration was tested for HMB using SOP 113-04 HMB (modified standard curve), at Time 0, 30, 60, 90, and 120 d.
To prepare the samples for testing, 0.5 ml of the sample was transferred to a microcentrifuge tube in quadruplet. Then 0.25 ml of KIV internal standard added to standards and three of each sample set. Finally, 0.25 ml 0.2M phosphate buffer was added to the three samples with KIV internal standard and 0.5 ml 0.2M phosphate buffer to the samples not containing KIV.
The samples were considered stable with a ±5% of expected change HMB concentration over the four months with an allowable ±3% analytical variation. A linear regression was conducted on the data as a secondary measure of stability.

[5] = Day 1 (after initial mixing), pH approximately 2.74

| Structure (SMILES) | Physical appearance [1, 5] | Physical appearance ([1]; Day 7, bottles not disturbed) | Physical appearance ([1]; Day 14, bottles not disturbed) | Physical appearance ([1]; Day 21, bottles not disturbed) | Changes in the physical appearance on addition ([2]; commercially available soluble-protein containing ready-to-drink products) | Appearance of the liquids [3] | Going into solution when added to a liquid ([2]; added to a liquid, slight shaking) | Decrease in HMB free acid, of the expected amount ([4]; 300 mg/serving of soluble protein, 120 days (FIG. 3)) | Linear decrease over time (linear regression) ([4]; 300 mg/serving, 120 days, p<0.05) | Decrease in HMB free acid, of the expected amount ([4]; 1000 mg/serving of soluble protein, 120 days (FIG. 4)) | Linear decrease over time (linear regression) ([4]; 1000 mg/serving, 120 days, p<0.05) | Decrease in HMB free acid, of the expected amount ([4]; 3000 mg/serving of soluble protein, 120 days (FIG. 5)) | Linear decrease over time (linear regression) ([4]; 3000 mg/serving, 120 days, p<0.05) | Stability in a drink containing soluble protein ([4]; room temperature, 120 days) | Changes in HMB concentration over time ([4]; three concentrations (300, 1000, 3000 mg/serving) in ISOPURE, 120 d) | Linear decrease over time (linear regression) ([4]; three concentrations in ISOPURE, 120 d, p>0.05) |
| --- | --- | --- | --- | --- | --- | --- | --- | --- | --- | --- | --- | --- | --- | --- | --- | --- |
| CC(C)(O)CC(=O)[O-].CC(C)(O)CC(=O)[O-].[Ca+2] [CaHMB, reference compound] | Cloudy | Defined Separation | Defined Separation w/Particulates | Defined Separation w/Particulates | sedimentation and clumping | cloudy and contain precipitate |  |  |  |  |  |  |  |  |  |  |
| CC(C)(O)CC(=O)O [HMB free acid, β-Hydroxy-β-methylbutyrate] | Semi-Clear | Semi-Clear | Semi-Clear | Semi-Clear |  | clear and precipitate-free | goes into solution almost instantly | less than 8% | no significant linear decrease | less than 8% | no significant linear decrease | less than 8% | no significant linear decrease | remaining stable | less than 8.0% | no significant linear decrease |
